Data published in ChEMBL document CHEMBL3044731, “Insecticidal Effects of Organotin(IV) Compounds on Plutella Xylostella (L.) Larvae. II. Inhibitory Potencies Against Acetylcholinesterase and Evidence for Synergism in Tests With Bacillus Thuringiensis(BER.) and Malathion” (Met Based Drugs, 1994).
pIC50: −log10 of the molar value. Where “and” joins values, the source holds several entries; their conditions need not be identical. Equal entries are not always repeated.

These compounds were tested against T1, Acetylcholinesterase (Plutella xylostella, UniProt Q8MZM0) (assay: Inhibition of AChE in drug-sensitive Plutella xylostella (diamondback moth) fourth-instar larvae homogenates using acetylthiocholine iodide substrate by colorimetric method). Conditions: read-out: I50.
T1 sequence (Q8MZM0 whole entry): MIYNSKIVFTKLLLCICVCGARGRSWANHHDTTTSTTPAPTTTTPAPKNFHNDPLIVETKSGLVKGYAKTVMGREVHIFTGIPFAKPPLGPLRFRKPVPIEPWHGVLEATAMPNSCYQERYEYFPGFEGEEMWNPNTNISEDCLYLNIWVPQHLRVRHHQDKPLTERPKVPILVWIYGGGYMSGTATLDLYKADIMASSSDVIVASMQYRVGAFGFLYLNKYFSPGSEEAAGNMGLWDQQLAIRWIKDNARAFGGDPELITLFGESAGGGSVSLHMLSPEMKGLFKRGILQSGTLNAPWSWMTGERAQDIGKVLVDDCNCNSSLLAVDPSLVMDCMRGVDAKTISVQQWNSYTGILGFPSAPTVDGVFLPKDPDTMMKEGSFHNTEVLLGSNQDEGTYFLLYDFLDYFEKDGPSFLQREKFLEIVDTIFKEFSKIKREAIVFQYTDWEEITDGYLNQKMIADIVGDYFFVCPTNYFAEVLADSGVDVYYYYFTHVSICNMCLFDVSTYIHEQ

With “TRIPHENYLSTANNYL 2-(DIMETHYLCARBAMOYLTHIO)ACETATE” as the compound, how does the pIC50 read?
The pIC50 was 5.27.

“TRIPHENYLSTANNYL 2-(DIMETHYLCARBAMOTHIOYLTHIO)ACETATE” was tested. Which pIC50 did it give?
The pIC50 was 1.58.

The compounds below were run against Acetylcholinesterase (Plutella xylostella) (UniProt Q8MZM0) (assay: Inhibition of AChE in drug-resistant Plutella xylostella (diamondback moth) fourth-instar larvae homogenates at 0.1 mM using acetylthiocholine iodide substrate by colorimetric method). Conditions: not given.
Sequence of Acetylcholinesterase (Plutella xylostella) (Q8MZM0 entry or part of it): as the sequence (Q8MZM0 whole entry) above

With “triphenylstannyl 2-(4-chlorophenylcarbamoylthio)acetate” as the compound, how does the inhibition read?
Its inhibition is 74.6%.

For “triphenylstannyl 6-(piperidine-1-carbonylthio)hexanoate”, which inhibition is on record?
Its inhibition is 27%.

How did the inhibition turn out when “triphenylstannyl 2-(piperidine-1-carbonylthio)acetate” was run?
The inhibition was 24.4%.

With “TRIPHENYLSTANNYL 2-(PHENYLCARBAMOYLTHIO)ACETATE” as the compound, how does the inhibition read?
The inhibition was 31.1%.

For “triphenylstannyl 2-(2,4-dichlorophenylcarbamoylthio)acetate”, which inhibition is on record?
Its inhibition is 13.4%.

For “S-triphenylstannyl piperidine-1-carbothioate”, which inhibition is on record?
The inhibition was 14.8%.

Which inhibition does the source give for “(4-chlorophenyl)diphenylstannyl 2-(phenylcarbamoylthio)acetate” here?
The inhibition was 15.8%.

With TRIPHENYLSTANNYL 2-([sequence])ACETATE as the compound, how does the inhibition read?
Its inhibition is 27.6% and 31.8% and 42.1%.

These compounds were tested on Plutella xylostella (assay: Insecticidal activity against drug-resistant Plutella xylostella (diamondback moth) fourth-instar larvae exposed to compound through topical application followed by transfer onto fresh Brassica leaves assessed as insect mortality measured 48 hr post compound application). Conditions: not given.
Format: functional

“triphenylstannyl 2-(4-chlorophenoxy)acetate” was tested. Which LD50 did it give?
Its LD50 is 2.26 ×10⁻³ mol/L.

For DICYCLOPENTYL(PHENYL)STANNANOL, which LD50 is on record?
The LD50 was 3.7 ×10⁻³ mol/L.

“triphenylstannyl 2-((2-isopropyl-5-methylcyclohexyloxy)carbonothioylthio)acetate” was tested. Which LD50 did it give?
The LD50 was 3.62 ×10⁻³ mol/L.

Which LD50 does the source give for “triphenylstannyl 2-(4-chlorophenylcarbamoylthio)acetate” here?
The LD50 was 0.9 ×10⁻³ mol/L.

With “1-(dicyclopentyl(phenyl)stannyl)-1H-1,2,4-triazole” as the compound, how does the LD50 read?
The LD50 was 2.37 ×10⁻³ mol/L.

How did the LD50 turn out when “TRIPHENYLSTANNYL 2-([sequence])ACETATE HYDRATE” was run?
Its LD50 is 24 ×10⁻³ mol/L.

“1-(cyclopentyldiphenylstannyl)-1H-1,2,4-triazole” was tested. Which LD50 did it give?
Its LD50 is 7.85 ×10⁻³ mol/L.

Which LD50 does the source give for “TRIPHENYLSTANNYL 2-(PHENYLCARBAMOYLTHIO)ACETATE” here?
The LD50 was 1.5 ×10⁻³ mol/L.

For “triphenylstannyl 2-(4-nitrophenoxy)acetate”, which LD50 is on record?
Its LD50 is 4.38 ×10⁻³ mol/L.

Which LD50 does the source give for METHYL TRIPHENYLSTANNYL OXALATE here?
The LD50 was 4.5 ×10⁻³ mol/L.

“triphenylstannyl 2-(morpholine-4-carbonothioylthio)acetate” was tested. Which LD50 did it give?
Its LD50 is 1.66 ×10⁻³ mol/L.

With [sequence] 2-([sequence])ACETATE as the compound, how does the LD50 read?
Its LD50 is 1.78 ×10⁻³ mol/L.

For “tricyclohexylstannyl 2-(quinolin-8-yloxy)acetate”, which LD50 is on record?
The LD50 was 0.57 ×10⁻³ mol/L.

With “(4-chlorophenyl)diphenylstannyl 2-(dimethylcarbamothioylthio)acetate” as the compound, how does the LD50 read?
The LD50 was 2.36 ×10⁻³ mol/L.

How did the LD50 turn out when TRIPHENYLSTANNYL 4-OXOPENTANOATE was run?
Its LD50 is 6.95 ×10⁻³ mol/L.

`CNC(=O)ON=C(C)SC` [METHOMYL] was tested. Which LD50 did it give?
The LD50 was 1.43 ×10⁻³ mol/L.

How did the LD50 turn out when “triphenylstannyl 4-(2-carbamoylhydrazono)pentanoate” was run?
The LD50 was 2.22 ×10⁻³ mol/L.

Which LD50 does the source give for TRIPHENYLSTANNYL 2-([sequence])BENZOATE here?
The LD50 was 2.06 ×10⁻³ mol/L.

How did the LD50 turn out when “4-(2-oxo-2-(triphenylstannyloxy)ethoxy)benzoic acid” was run?
Its LD50 is 0.69 ×10⁻³ mol/L.

For “1-(tricyclopentylstannyl)-1H-1,2,4-triazole”, which LD50 is on record?
Its LD50 is 0.27 ×10⁻³ mol/L.

With `CCOC(=O)CC(SP(=S)(OC)OC)C(=O)OCC` (configuration not stated) [MALATHION] as the compound, how does the LD50 read?
The LD50 was 42.6 ×10⁻³ mol/L.

With “tricyclohexylstannyl 2-(piperidine-1-carbonothioylthio)acetate” as the compound, how does the LD50 read?
The LD50 was 0.18 ×10⁻³ mol/L.

How did the LD50 turn out when “5-(triphenylstannylthio)-1,3,4-thiadiazol-2-amine” was run?
Its LD50 is 2.31 ×10⁻³ mol/L.

With TRIPHENYLSTANNYL ACETATE as the compound, how does the LD50 read?
The LD50 was 6.06 ×10⁻³ mol/L.

With “triphenylstannyl 4-oxo-4-phenylbutanoate” as the compound, how does the LD50 read?
Its LD50 is 1.84 ×10⁻³ mol/L.

Which LD50 does the source give for TRIPHENYLSTANNYL 2-([sequence])ACETATE here?
Its LD50 is 3.23 ×10⁻³ mol/L and 1.8 ×10⁻³ mol/L.

The compounds below were run against T1, Acetylcholinesterase (assay: Inhibition of AChE in drug-resistant Plutella xylostella (diamondback moth) fourth-instar larvae homogenates using acetylthiocholine iodide substrate by colorimetric method). Conditions: read-out: I50.

With “TRIPHENYLSTANNYL 2-(DIMETHYLCARBAMOYLTHIO)ACETATE” as the compound, how does the pIC50 read?
Its pIC50 is 1.88.
